# Columns and labels:
# RMA cells = experiment: Apoptosis (AnnexinV), Caspase 8 and CD95/Fas in RMA cells in culture; format: cell-based, mice
# Text: FIGS. 5A-5I show the effects of SHIP1 inhibitor as a chemotherapeutic. […] FIG. 5D and FIG. 5E show the representative histograms and box-and-whisker plots of FasL expression by NK cells from C56BL/6 (p=0.0002; Unpaired t test with Welch's correction) or RAG1−/− (p<0.0001; Mann-Whitney U test) tumor challenged, SHIP inhibitor or vehicle treated hosts. […] (NK cells p=0.0192; Unpaired t test with Welch's correction. T cells p=0.0659; Mann-Whitney U test). Additionally, FIGS. 5A-5G show the analysis by flow cytometry on day 3 after hosts receive SHIP inhibitor or vehicle for two consecutive days. NK cells are defined as NK1.1+CD3ε−. The graphs are representative of at least two independent experiments with at least four SHIP inhibitor and vehicle treated mice. […] Viability is expressed as frequency at a given concentration expressed as a percentage of solvent only treated cells. The kill curve summarizes pooled data from three independent experiments using six replicate wells/concentration with mean ±SEM indicated (n=18 per group. One-way ANOVA with Dunnett's multiple comparisons. 0 pM vs. 20 pM Adjusted p value =0.0001. 0 pM vs. 15 pM Adjusted p value =0.0001. 0 pM vs. 10 pM Adjusted p value =0.0001. 0 pM vs. 7.5 pM Adjusted p value =0.0001. 0 pM vs. 5 pM Adjusted p value =0.0001).
# NK cells are able to directly kill target cells through several different mechanisms including both production of perforin and granzymes and induction of apoptosis via Fas-FasL signaling (Arase, H. et al., Fas-mediated cytotoxicity by freshly isolated natural killer cells. J Exp Med. (1995); 181: 1235-1238; Zamai, L. et al., Natural killer (NK) cell-mediated cytotoxicity: differential use of TRAIL and Fas ligand by immature and mature primary human NK cells. J Exp Med. (1998); 188: 2375-2380). […] SHIP1 was recently shown to be recruited to CD95/Fas to set a threshold for induction of Caspase 8, and thereby, a threshold for induction of apoptosis (Park, M. Y. et al., Impaired T-cell survival promotes mucosal inflammatory disease in SHIP1-deficient mice. Mucosal Immunol. (2014); 7: 1429-1439). […]
# MC-38 = MC-38 viability following in vitro treatment; format: cell-based, mice; details: in vitro 24 h; all concentrations N.S. vs solvent only
# Procedure: FIG. 7A and FIG. 7B show CT26 (FIG. 7A) and MC-38 (FIG. 7B) viability following in vitro treatment with 3AC for 24 h at indicated doses. Relative viability is expressed as frequency compared to solvent only treated cells. Kill curve summarizes pooled data from three independent experiments using six replicate wells/concentration with mean±SEM indicated. BALB/C mice were challenged with subcutaneous injection of CT26 colon carcinoma cells in the right flank. Mice were treated with either 2 consecutive days of 3AC or vehicle control each week as in FIG. 4A. Tumor size at […] 28 days (FIG. 7C), and tumor weight on day 28 determined after dissection of tumor (FIG. 7E). […] C57BL/6 mice were challenged with subcutaneous injection of MC-38 colon carcinoma cells in the right flank. Mice were treated with either 2 consecutive days of SHIP inhibitor or vehicle control each week as in FIG. 4A. Tumor size at 14, 21 and 25 days (FIG. 7D), and tumor weight (FIG. 7F) on day 25 were determined after dissection of tumor. […] FIG. 7A (n=18 per group. One-way ANOVA with Dunnett's multiple comparisons. 0 μM vs. 20 μM Adjusted p value=0.0463. All other concentrations of SHIP inhibitor compared with solvent only N.S.). FIG. 7B (n=18 per group. One-way ANOVA with Dunnett's multiple comparisons. All concentrations of SHIP inhibitor compared with solvent only N.S.). […]
# [1] = RMA cells, culture for 12 hours
smiles,measurement,setting,value
"CC(C)CCC[C@@H](C)[C@H]1CC[C@H]2[C@@H]3CCC4C[C@H](N)CC[C@]4(C)[C@H]3CC[C@]12C (stereo partly drawn) [Compound 3AC, 3-α-aminocholestane]",frequency of death receptor CD95/Fas,RMA cells; 3AC-treated RMA cells,increased frequency
same,activation of Caspase 8,RMA cells; [1],increased activation of Caspase 8
same,induction of apoptosis (AnnexinV),RMA cells; [1],significant induction of apoptosis
same,MC-38 viability (direct killing),MC-38,resistant to direct killing

# From patent US11952328B2, “Selective ship inhibitors for treating disease” (THE RESEARCH FOUNDATION FOR THE STATE UNIVERSITY OF NEW YORK, priority 2018, dated 2024)
